How the values were obtained:
[1] = logP values of complex ingredients
Excerpt: (§1) Among the above ingredients, the logP values of dipropylene glycol, diethoxyethyl 5 succinate.

[2] = HLB values of surfactants; assay type: physicochemical
Excerpt: as §1

HLB [2]	Compound	logP [1]
–	CCCCCCCCCCCCOCCOCCO [Diethylene glycol lauryl ether]	4
17	Polysorbate 20	–
15	Polysorbate 60	–
–	CCOCCOC(=O)CCC(=O)OCCOCC [Diethoxyethyl succinate]	0.25

Source: patent US20240382601A1, “EMULSION FORMULATION HAVING HIGH FORMULATION STABILITY AND MANUFACTURING METHOD THEREOF” (AMOREPACIFIC CORPORATION, priority 2023, published 2024)
